# Publication PMC6950293, “A Rapid Extraction Method Combined with a Monoclonal Antibody-Based Immunoassay for the Detection of Amatoxins” (Toxins, 2019)
# Read-outs that look alike come from different tables or passages of the source. *1 amine or outer side, *2 acyl side, *3 side chain or, on linkers, in order; H or OH if unused. Where a SMILES comes first, the peptide text is derived from it. Bridges are numbered along the chain shown (N, C = ends). [ ]: non-standard residue; d: D form. ξ: configuration not given here. Adda = CO[C@@H](Cc1ccccc1)[C@@H](C)/C=C(C)/C=C/[C@H](N[*:1])[C@H](C)C(=O)[*:2]; Trp(2-yl) = O=C([C@H](Cc1c([*:3])[nH]c2ccccc12)N[*:1])[*:2]; dAsp(3S-Me) = C[C@H](C(=O)[*:3])[C@@H](N[*:1])C(=O)[*:2]; ξTrp(2-yl) = O=C(C(Cc1c([*:3])[nH]c2ccccc12)N[*:1])[*:2]; Leu(4R-OH,5-OH) = C[C@](O)(CO)C[C@H](N)C(=O)O; d(γGlu) = O=C(O)[C@@H](CCC(=O)[*:2])N[*:1]; X1 = CC(O)(CO)CC(N[*:1])C(=O)[*:2]; cisHyp = O=C(O)[C@@H]1C[C@H](O)CN1; ξAsp(3ξ-OH) = NC(C(=O)O)C(O)C(=O)O; Hyp = O=C(O)[CH]1C[CH](O)CN1; NMeDha = C=C(NC)C(=O)O
# How the values were obtained:
# [1] = tested on: mAb AMA9G3; assay: indirect competitive ELISA (cELISA) with mAb AMA9G3; format: binding, mouse; conditions: for working range of detection (estimated as IC30 to IC80): AMA9G3
# [2] = tested on: mAb AMA9C12; assay: indirect competitive ELISA (cELISA) with mAb AMA9C12; format: binding, mouse
# [3] = tested on: polyclonal antibody (pAb); conditions: Bühlmann Assay ref 15; cited from earlier work
# [4] = tested on: mAb; conditions: another mAb, different coupling strategy ref 16; cited from earlier work
# [5] = tested on: single chain variable fragment of a mAb; conditions: single chain variable fragment of a mAb ref 24; cited from earlier work
# [6] = tested on: mice; conditions: mice ref 6; cited from earlier work
# [7] = tested on: humans; conditions: humans ref 7; cited from earlier work
# [8] = mAb AMA9G3, coating antigen PERI-AMA-BSA, triplicate
# [9] = mAb AMA9G3, (IC50 α-AMA)/(IC50 test inhibitor) × 100
# [10] = mAb AMA9C12, coating antigen PERI-AMA-BSA, triplicate
# [11] = mAb AMA9C12, (IC50 α-AMA)/(IC50 test inhibitor) × 100
Compound,"IC50 [1, 8] [µg/mL]","Cross Reactivity (%) [1, 9] [%]","IC50 [2, 10] [µg/mL]","Cross Reactivity (%) [2, 11] [%]",Cross Reactivity (%) [3],also measured
N[C@H](C(=O)O)c1cc(=O)[nH]o1 [ibotenic acid],>1,<0.3,>1,<0.3,–,–
C=C1C(=O)N[C@H](C)C(=O)N[C@@H](CC(C)C)C(=O)N[C@@H](C(=O)O)[C@H](C)C(=O)N[C@@H](CCCNC(=N)N)C(=O)N[C@@H](/C=C/C(C)=C/[C@H](C)[C@H](Cc2ccccc2)OC)[C@H](C)C(=O)N[C@@H](C(=O)O)CCC(=O)N1C [microcystin-LR] (R[Adda][d(γGlu)][NMeDha][dA]L[dAsp(3S-Me)]-OH; lactam N-7),–,–,–,–,–,Cross Reactivity (%) [1]: <0.3%; IC50 [1]: >1 µg/mL; Cross Reactivity (%) [2]: <0.3%; IC50 [2]: >1 µg/mL
NCc1cc(=O)[nH]o1 [muscimol],>1,<0.3,>1,<0.3,–,–
C/C=C1/C(=O)N[C@@H](C(=O)O)[C@H](C)C(=O)N[C@@H](CCCNC(=N)N)C(=O)N[C@@H](/C=C/C(C)=C/[C@H](C)[C@H](Cc2ccccc2)OC)[C@H](C)C(=O)N[C@@H](C(=O)O)CCC(=O)N1C [nodularin],–,–,–,–,–,Cross Reactivity (%) [1]: <0.3%; IC50 [1]: >1 µg/mL; Cross Reactivity (%) [2]: <0.3%; IC50 [2]: >1 µg/mL
CC1NC(=O)C2CC(O)CN2C(=O)C2CSc3[nH]c4ccccc4c3CC(NC1=O)C(=O)NC(CC(C)(O)CO)C(=O)NC(C(C)C)C(=O)NC(C(O)C(=O)O)C(=O)N2 (stereo not drawn) [phallacidin] (cyclo([ξAsp(3ξ-OH)]C[Hyp]A[ξTrp(2-yl)][X1]V); thioether 2-5; configuration not given here),>1,<0.3,>1,<0.3,Not detected,–
"C[C@@H]1NC(=O)[C@H](C[C@@](C)(O)CO)NC(=O)[C@@H]2Cc3c([nH]c4ccccc34)SC[C@H](NC(=O)[C@@H]([C@H](C)O)NC1=O)C(=O)N1C[C@@H](O)C[C@H]1C(=O)N[C@@H](C)C(=O)N2 [phalloidin] (cyclo(A[dT]C[cisHyp]A[Trp(2-yl)][Leu(4R-OH,5-OH)]); thioether 3-6)",>1,<0.3,>1,<0.3,Not detected,–
CN(C)CCc1c[nH]c2cccc(OP(=O)(O)O)c12 [psilocybin],>1,<0.3,>1,<0.3,–,–
CC[C@H](C)[C@@H]1NC(=O)CNC(=O)[C@@H]2Cc3c([nH]c4cc(O)ccc34)[S@+]([O-])C[C@H](NC(=O)CNC1=O)C(=O)N[C@@H](CC(N)=O)C(=O)N1C[C@H](O)C[C@H]1C(=O)N[C@@H]([C@@H](C)[C@@H](O)CO)C(=O)N2 [α-amanitin],0.00157 ± 7e-05,100,0.00266 ± 0.00018,100,100%,"working range of detection (estimated as IC30 to IC80) [1]: 0.0007 to 0.0031 µg/mL; competitive inhibition / binding (in words) ([1]; mAb AMA9G3): competitively inhibited; IC50 ([1]; mAb AMA9G3, coating antigen PERI-AMA-BSA, triplicate, listed as α-AMA): ≈ 1.6 ng mL^−1; competitive inhibition / binding (in words) ([2]; mAb AMA9C12): competitively inhibited; IC50 [4]: 0.066 µg/mL; IC50 [5]: 0.077 µg/mL; LD50 [6]: 0.1 mg/kg; dose severely toxic [7]: 0.3 mg/kg"
CC[C@H](C)[C@@H]1NC(=O)CNC(=O)[C@@H]2Cc3c([nH]c4cc(O)ccc34)[S+]([O-])C[C@H](NC(=O)CNC1=O)C(=O)N[C@@H](CC(=O)O)C(=O)N1CC(O)C[C@H]1C(=O)N[C@@H]([C@@H](C)[C@@H](O)CO)C(=O)N2 (stereo partly drawn) [β-amanitin],0.0242 ± 0.0062,6.5,>1,<0.3,0.1%,"working range of detection (estimated as IC30 to IC80) [1]: 0.0036 to 0.1291 µg/mL; competitive inhibition / binding (in words) ([1]; mAb AMA9G3): competitively inhibited; IC50 ([1]; mAb AMA9G3, coating antigen PERI-AMA-BSA, triplicate, listed as β-AMA): 0.024 µg/mL; competitive inhibition / binding (in words) ([2]; mAb AMA9C12): no reduction in signal response; IC50 [4]: 0.097 µg/mL; IC50 [5]: 0.115 µg/mL"
